“Also recorded” adds a separate entry of the source.
Experiments:
[1] = system: excisional wounds of diabetic (Db/Db) mice; assay: Murine excisional wound healing model, diabetic (Db/Db) mice; assay type: in vivo; details: topical, delivery control day 23
Excerpt: Young (8 weeks, Jackson Laboratories) aged (18-24 months, National Institute of Aging aged rodent colony), and Diabetic (Db/Db) C57/BL6 mice (n=4 per group) underwent excisional wound biopsies in accordance with the Stanford University Institutional Animal Care and Use Committees. Wounds were made as previously described. Briefly, two 6-mm circular, full-thickness wounds were made on the dorsum of mice. A 12 mm diameter, 0.5 mm thick donut shaped silicone ring (Grace Bio-Labs, Bend, Oreg.) was then placed around the wounds preventing premature skin contracture. […] Wounds were dressed with a sterile occlusive dressing that was changed daily, monitored, and photographed every other day until closure. […]
(§1) CD31 staining was performed on paraffin embedded 5-micron wound sections (1:50, Santa Cruz Biotechnology, Santa Cruz, Calif.) diluted in blocking goat serum overnight at 4° C. […] Sections were then mounted with Vectashield plus DAPI (Vector Laboratories, Burlingame, Calif.), and analyzed using a Zeiss Axioplan 2 light-fluorescent microscope (Carl Zeiss Vision, Germany) equipped with Zeiss AxioCam HR digital imaging software (Carl Zeiss Vision). […]
Transdermal delivery of DFO accelerates murine wound healing: Given the optimal release properties and structural parameters determined above, we sought to evaluate the ability of our DFO delivery device to improve gross wound healing in diabetic mice. […]

[2] = system: diabetic ulcers; assay: Murine pressure ulcer model, diabetic mice, transdermal patch; assay type: in vivo; details: transdermal patch delivery; controls Day 45+
Excerpt: (§2) Pressure ulcers on the dorsum of aged mice (19 month, NIA) and Diabetic (Db/Db) C57Bl/6 mice (n=6 per group) where created using two ceramic magnets (12 mm diameter and 5 mm thick, and average weight of 2.4 g) that apply 50 mm Hg pressure to the skin between them (Stadler et. al. J Invest Surg. 2004 July-August; 17(4):221-7). A single ischemia/reperfusion (I/R) cycle consists of placement of magnets (ischemia) for a designated time period followed by release (reperfusion). Three ischemia-reperfusion cycles were used in each animal to initiate decubitus ulcer formation (either in 3 h or 12 h cycles). Animals were housed individually, to prevent the accidental dislocation of the magnets and to prevent tampering with the resultant ulcer.
30 μm fresh frozen sections were washed with PBS and stained with 10 μM Dihydroethidium (DHE, invitrogen) at 37 C for 30 minutes. Slides were then washed with PBS, and Vectashield with DAPI was added.
Transdermal delivery of DFO reduces ROS accumulation and ulcer formation: We have completed studies examining the ability of our DFO patch to ameliorate diabetes-associated deficits in wound healing using our pressure ulcer model. This injury model causes increased levels of ROS, as assayed using dihydroethidium (DHE) fluorescent staining.

[3] = system: pressure ulcers on the dorsum of aged mice; assay: Murine pressure (decubitus) ulcer model in aged mice; assay type: in vivo; details: n=6
Excerpt: as §2, §1
We evaluated the ability of DFO to prevent pressure ulcer formation, which has been associated with HIF-1α dysfunction and diabetes, using a previously described murine pressure ulcer model. […]

[4] = DFO patch release and skin penetration (Example 4); assay type: in vitro ADME
[5] = system: VEGF; assay: VEGF ELISA of harvested wounds; assay type: in vivo, murine; details: control 100 ng/ml
Protocol: ELISA. Total protein was isolated from harvested wounds by homogenizing tissue in RIPA buffer. VEGF and SDF-1 levels were measured using the Quantikine murine VEGF and SDF-1 ELISA kits (R&D Systems, Minneapolis, Minn.) according to manufacturer's instructions.

CC(=O)N(O)CCCCCNC(=O)CCC(=O)N(O)CCCCCNC(=O)CCC(=O)N(O)CCCCCN [deferoxamine]
wound closure [1]: 13 days
diabetic ulcer closure [2]: 30 days
ulcer closure date ([3]; controls day 19): 17 days
Ulcer incidence ([3]; pressure ulcer model, controls 100%): 33%
DFO uptake into the skin / DFO delivery ([4]; reverse micelles destabilized using 5% DMSO, listed as DFO): inhibit DFO delivery; also recorded: significantly reduces the DFO uptake into the skin
drug penetration ([4]; without an occlusive backing): very minimal drug penetration
reduction in skin penetration of DFO ([4]; without backing membrane): 10 fold
VEGF via ELISA [5]: 200 ng/mL

From patent publication US10751304B2, “Topical and transdermal delivery of HIF-1 modulators to prevent and treat chronic wounds” (The Board of Trustees of the Leland Stanford Junior …, priority 2008, dated 2020)
